Experimental data: patent US20250352606A1, “Pharmaceutical Composition for Promoting Neurogenesis and Method of Utilizing Gastrodia Elata Extract or Adenosine Analog for Promoting Neurogenesis” (AXR Pharma Inc., priority 2019, published 2025)

Columns and labels:
[1] = system: glucose-6-phosphate dehydrogenase (G6PD); assay: Glucose-6-phosphate dehydrogenase in serum and brain tissue of D-galactose-treated animals; assay type: in vivo, mice; settings: serum, cortex and hippocampus; galactose-induced animals
Procedure: (§1) A total of nine groups with 6 each animal experiments were conducted. The animals in groups 1-9 were: 1: blank control group, 2: D-galactose (0.2 g/kg), 3: D-galactose (0.2 g/kg)+vitamin E (100 mg/kg), 4: D-galactose (0.2 g/kg)+TM1-2 low dose (5 mg/kg), 5: D-galactose (0.2 g kg)+TM1-2 mid-dose group (20 mg/kg), 6: D-galactose (0.2 g/kg)+TM1-2 high dose group (50 mg/kg), 7: D-galactose (0.2 g/kg)+T1-11 low dose group (1 mg/Kg), 8: D-galactose (0.2 g/kg)+T1-11 high dose group (10 mg/kg), 9: T1-11 (10 mg/kg). D-galactose was treated by subcutaneous injection (0.2 g/kg body weight), and G. elata extract TM1-2, T1-11 and vitamin E were orally administrated (oral gavage). The test substances were treated once a day, continuing for 6 weeks. When administering, in addition to the blank control group, each group was continued to treat with 0.2 g/kg (body weight) D-galactose subcutaneously injected via back neck, and the blank control group was subcutaneously injected with physiological saline. The vitamin E group was used as a positive control group. After observing their behavior, the animals are intraperitoneally injected with […] 5-bromo-2′-deoxyuridine (BrdU) continuously for one week. Then the animals were sacrificed to take their brain tissue and blood. […]

catalase (CAT) = assay: Catalase activity in serum and brain tissue of D-galactose-treated animals; assay type: in vivo, mice; settings: serum, cortex and hippocampus; galactose-induced animals
Procedure: as §1

[2] = system: D-galactose-induced aging mice; assay: Morris water maze test in D-galactose-induced aging mice; assay type: in vivo; settings: D-galactose 0.2 g/kg s.c.; test substance oral gavage once a day for 6 weeks
Procedure: (§2) A total of nine groups with 6 each animal experiments were conducted. The animals in groups 1-9 were: 1: blank control group, 2: D-galactose (0.2 g/kg), 3: D-galactose (0.2 g/kg)+vitamin E (100 mg/kg), 4: D-galactose (0.2 g/kg)+TM1-2 low dose (5 mg/kg), 5: D-galactose (0.2 g kg)+TM1-2 mid-dose group (20 mg/kg), 6: D-galactose (0.2 g/kg)+TM1-2 high dose group (50 mg/kg), 7: D-galactose (0.2 g/kg)+T1-11 low dose group (1 mg/Kg), 8: D-galactose (0.2 g/kg)+T1-11 high dose group (10 mg/kg), 9: T1-11 (10 mg/kg). D-galactose was treated by subcutaneous injection (0.2 g/kg body weight), and G. elata extract TM1-2, T1-11 and vitamin E were orally administrated (oral gavage). The test substances were treated once a day, continuing for 6 weeks. When administering, in addition to the blank control group, each group was continued to treat with 0.2 g/kg (body weight) D-galactose subcutaneously injected via back neck, and the blank control group was subcutaneously injected with physiological saline. The vitamin E group was used as a positive control group.
Furthermore, the memory learning ability of mice was evaluated using the Morris water maze test (Vorhees C V, et al. (2006)) (FIG. 7A and FIG. 7B).

[3] = system: glutathione peroxidase (GSH-Px); assay: Glutathione peroxidase in serum and brain tissue of D-galactose-treated animals; assay type: in vivo, mice; settings: serum, cortex and hippocampus; galactose-induced animals
Procedure: as §1

[4] = system: lipid peroxidation (malondialdehyde, MDA); assay: Lipid peroxidation in serum and brain tissue of D-galactose-treated animals; assay type: in vivo, mice; settings: serum, cortex and hippocampus; galactose-induced animals
Procedure: as §1

[5] = system: superoxide dismutase (SOD); assay: Superoxide dismutase activity in serum and brain tissue of D-galactose-treated animals; assay type: in vivo, mice; settings: serum, cortex and hippocampus; galactose-induced animals
Procedure: as §1

[6] = system: D-galactose-induced aging mice; assay: Nesting test and burrowing test in D-galactose-induced aging mice; assay type: in vivo; settings: D-galactose 0.2 g/kg s.c.; test substance oral gavage once a day for 6 weeks
Procedure: as §2, with “The vitamin E group was used as a positive control group.” left out
In the Nesting Test (Deacon R (2012), Deacon RM (2006)), mice were given nesting materials, and they made nests in the corners of the cage and stayed in the nest. By using the nature of mouse nesting, nest cotton swabs were given, the scores of completing nesting were calculated, and the weight of the remaining unbroken cotton was weighed to assess the degree of mouse aging (FIGS. 5A and 5B). […]

SH-SY5Y cells = assay: SA-β-gal staining of senescence SH-SY5Y cells; assay type: cell-based; settings: senescence SH-SY5Y cells treated for 24 hours
Procedure: SH-SY5Y cells (purchased from Taiwan and Bioresource Collection and Research Center (BCRC), 08C0066) was cultured in DMEM containing 10% fetal bovine serum, 100 U/ml penicillin and 100 µg/ml streptomycin in a carbon dioxide incubator. When SH-SY5Y cells were grown in a 100 mm culture dish to a fullness of 80%, subculture was carried out. […] Thus, the intracellular amount of SA-β-gal in the test cells were used as an indicator of cell senescence. These senescence cells were then used to perform the following aging-related cell experiments.
The senescence SH-SY5Y cells in embodiment 3 were treated with the G. elata crude extract TM1, the G. elata extract TM1-2 and N^6-(4-hydroxybenzyl) adenosine (T1-11) for 24 hours, then fixed with 4% formaldehyde, following by staining with SA-β-gal to evaluate the cell senescence level. […] Furthermore, the mechanism of cell senescence is currently known to be driven by two independent pathways, p53-p21 pathway and p16-Rb pathway. Both p21 and p16 are cyclin-dependent kinase inhibitors (CDKI), which prevent Rb from being phosphorylated so as to inhibit Rb. Consequently, the activity of E2F transcription factors is inhibited and the cell cycle is therefore blocked. p53, p63 and p73 can directly induce the activation of p21 protein, leading to arrest in cell cycle and cellular senescence.

[7] = system: BrdU and DCX-expressing cells in the hippocampus; assay: Neurogenesis markers BrdU and DCX in hippocampus of D-galactose-induced mice (immunostaining); assay type: in vivo
Procedure: as §2, with “The vitamin E group was used as a positive control group.” left out
After observing the behavior, the animals of Example 6 are intraperitoneally injected with […] 5-bromo-2′-deoxyuridine (BrdU) continuously for a week. […] The sections were immunohistochemically stained by first reacting with the first antibody, doublecortin (DCX) (purchased from Abcam) and then with a fluorescence-labeled secondary antibody (purchased from Jackson Labs Technologies, Inc). […]

[8] = system: p53, p16, p21 protein expression; assay: Cellular senescence related molecules (p53, p16, p21) in SH-SY5Y cells; assay type: cell-based
[9] = system: gamma amino butyric acid (GABA) metabolism; settings: An, et al (2003); cited from earlier work

| Structure (SMILES) | level of glucose-6-phosphate dehydrogenase (G6PD) reduced by galactose [1] | activity of catalase (CAT) (catalase (CAT)) | cognitive behavioral deficit incl. memory learning ability; higher dose better improvement [2] | level of glutathione peroxidation (GSH-Px) reduced by galactose [3] | lipid peroxidation (malondialdehyde, MDA) [4] | activity of superoxide dismutase (SOD) [5] | cognitive behavioral deficit: construction of nests and burrowing [6] | intracellular SA-β-gal (cell senescence level) (SH-SY5Y cells) | expression of BrdU in the hippocampus [7] | expression of DCX in the hippocampus [7] | p53, p16, p21 protein expression [8] | metabolism of GABA in gerbil hippocampus [9] |
| --- | --- | --- | --- | --- | --- | --- | --- | --- | --- | --- | --- | --- |
| OC[C@H]1O[C@@H](n2cnc3c(NCc4ccc(O)cc4)ncnc32)[C@H](O)[C@@H]1O [T1-11, N^6-(4-hydroxybenzyl) adenosine] | effectively reversed | significantly repaired the reduced activity | ameliorate cognitive behavioral deficit | effectively reversed | significantly repaired | significantly repaired the reduced activity | effectively ameliorate the animal cognitive behavioral deficit | significantly reduce SA-β-gal | ameliorate the reduced expression | ameliorate the reduced expression | inhibition of p53, p16, p21 protein expression | – |
| OCc1ccc(O[C@@H]2O[C@H](CO)[C@@H](O)[C@H](O)[C@H]2O)cc1 [gastrodin] | – | – | – | – | – | – | – | – | – | – | – | alter the metabolism of gamma amino butyric acid (GABA) |
